Source: the supplement of paper PMC5752671
Structures can show the parent of a compound that is named as a salt.

Experiments:
Experiment in all cases: IC50 (cell viability) (log10 M)
Conditions in all cases: 4 days
PL-21 = test system: PL-21
Outline: (§1)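 Fourteen leukemia cell lines were plated on extracellular-matrix-coated 384-well plates. Drugs were added robotically the next day at eight concentrations spanning 4–5 logs within 10^–12–10^–4 M, tailored per drug, in duplicate. Viability was read with CellTiter-Glo after 4 days. IC50 is the concentration where a fitted four-parameter curve crosses 50% viability, in log10 M; where that is not reached, the highest tested concentration is entered.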

EOL-1 = test system: EOL-1
Outline: as §1

HL60 = test system: HL60
Outline: as §1

MOLM/16 = test system: MOLM/16
Outline: as §1

U937 = test system: U937
Outline: as §1

OCI-AML2 = test system: OCI-AML2
Outline: as §1

KG1 = test system: KG1
Outline: as §1

NB4 = test system: NB4
Outline: as §1

MV4.11 = test system: MV4.11
Outline: as §1

SKM1 = test system: SKM1
Outline: as §1

| Compound | IC50 (log10 M) (HL60) | IC50 (log10 M) (MOLM/16) | IC50 (log10 M) (U937) | IC50 (log10 M) (OCI-AML2) | IC50 (log10 M) (MV4.11) | IC50 (log10 M) (SKM1) | IC50 (log10 M) (PL-21) | IC50 (log10 M) (EOL-1) | IC50 (log10 M) (KG1) | IC50 (log10 M) (NB4) |
| --- | --- | --- | --- | --- | --- | --- | --- | --- | --- | --- |
| CC1=C(/C=C/C(C)=C/C=C/C(C)=C/C(=O)Nc2ccc(O)cc2)C(C)(C)CCC1 [Fenretinide] | -5.46 | -5.9 | -5.82 | -5.5 | -5.75 | -5.32 | -5.44 | -5.86 | -5.82 | -5.62 |
| Nc1nc(F)nc2c1ncn2[C@@H]1O[C@H](CO)[C@@H](O)[C@@H]1O [Fludarabine] | -5.2 | -5.46 | -5.74 | -5.56 | -5.34 | -5.13 | -5.62 | -5.77 | -5.01 | > -5 |
| c1cc(-c2sc(-c3ccncc3)c(-c3ccncc3)c2-c2ccncc2)ccn1 [GANT58] | > -5 | > -5 | > -5 | > -5 | > -5 | > -5 | > -5 | > -5 | > -5 | > -5 |
| CS(=O)(=O)c1ccc(C(=O)Nc2ccc(Cl)c(-c3ccccn3)c2)c(Cl)c1 [GDC-0449] | > -5 | > -5 | > -5 | > -5 | > -5 | > -5 | > -5 | > -5 | > -5 | > -5 |
| COc1cc2ncnc(Nc3ccc(F)c(Cl)c3)c2cc1OCCCN1CCOCC1 [Gefitinib] | > -5 | -5.47 | > -5 | > -5 | -5.48 | > -5 | -5.34 | -5.5 | -5.01 | > -5 |
| Nc1ccn([C@@H]2O[C@H](CO)[C@@H](O)C2(F)F)c(=O)n1 [Gemcitabine HCl] | < -8.48 | < -8.48 | < -8.48 | < -8.48 | < -8.48 | < -8.48 | < -8.48 | < -8.48 | < -8.48 | < -8.48 |
| NC(=O)NO [Hydroxyurea] | > -5 | > -5 | > -5 | > -5 | > -5 | > -5 | > -5 | > -5 | > -5 | > -5 |
| CCc1c2c(nc3ccc(OC(=O)N4CCC(N5CCCCC5)CC4)cc13)-c1cc3c(c(=O)n1C2)COC(=O)[C@]3(O)CC [Irinotecan HCl] | -5.05 | -5.71 | -5.47 | -5.55 | -6.08 | -5.41 | -5.44 | -6.09 | -5.43 | -5.8 |
| CS(=O)(=O)CCNCc1ccc(-c2ccc3ncnc(Nc4ccc(OCc5cccc(F)c5)c(Cl)c4)c3c2)o1 [Lapatinib] | -5.05 | -5.45 | -5.45 | -5.37 | -5.4 | -5.07 | -5.4 | -5.04 | -5.01 | -5.37 |
| Nc1cccc2c1CN(C1CCC(=O)NC1=O)C2=O (stereo not given) [Lenalidomide] | > -5 | > -5 | > -5 | > -5 | > -5 | > -5 | > -5 | > -5 | > -5 | > -5 |
| COc1cc(Nc2ncc3c(n2)-c2ccc(Cl)cc2C(c2c(F)cccc2OC)=NC3)ccc1C(=O)O [MLN8237] | > -5 | < -8.48 | < -8.48 | -7.51 | -7.92 | > -5 | -7.95 | < -8.48 | -7.99 | -8.21 |
| Nc1ccccc1NC(=O)c1ccc(CNC(=O)OCc2cccnc2)cc1 [MS-275] | -6.6 | -7.03 | -6.6 | -6.78 | -6.86 | -6.84 | -6.61 | -7.34 | -6.27 | -6.85 |
| Cc1ccc(NC(=O)c2ccc(CN3CCN(C)CC3)cc2)cc1Nc1nc(-c2cccnc2)cs1 [Masitinib] | > -5 | -5.22 | -5.07 | > -5 | -5.28 | > -5 | -5.36 | -7.33 | > -5 | > -5 |
| N[C@@H](Cc1ccc(N(CCCl)CCCl)cc1)C(=O)O [Melphalan] | -5.55 | -5.53 | -5.99 | -6.57 | -6.72 | -5.41 | -5.39 | -6.64 | -5.44 | -6.08 |
| O=C1c2c(O)ccc(O)c2C(=O)c2c(NCCNCCO)ccc(NCCNCCO)c21 [Mitoxantrone] | -7.83 | -8.65 | -9.09 | -9.21 | < -9.48 | -8.57 | -7.76 | < -9.48 | -7.61 | -9.01 |

Continued, in another order:

| IC50 (log10 M) (HL60) | IC50 (log10 M) (MOLM/16) | IC50 (log10 M) (U937) | IC50 (log10 M) (OCI-AML2) | IC50 (log10 M) (MV4.11) | IC50 (log10 M) (SKM1) | Compound | IC50 (log10 M) (PL-21) | IC50 (log10 M) (EOL-1) | IC50 (log10 M) (KG1) | IC50 (log10 M) (NB4) |
| --- | --- | --- | --- | --- | --- | --- | --- | --- | --- | --- |
| > -5 | > -5 | > -5 | -5.74 | > -5 | > -5 | S=c1[nH]cnc2nc[nH]c12 [Mercaptopurine] | > -5 | > -5 | > -5 | > -5 |
| > -5 | > -5 | > -5 | < -8.48 | < -8.48 | > -5 | CN(Cc1cnc2nc(N)nc(N)c2n1)c1ccc(C(=O)N[C@@H](CCC(=O)O)C(=O)O)cc1 [Methotrexate] | > -5 | > -5 | > -5 | < -8.48 |
| -6.97 | -7.38 | -7.18 | < -8.48 | < -8.48 | -7.15 | CO[C@@]12[C@H](COC(N)=O)C3=C(C(=O)C(C)=C(N)C3=O)N1C[C@@H]1N[C@@H]12 [Mitomycin C] | -6.12 | -8.21 | -6.54 | -7.79 |
| > -5 | -6.88 | -7.27 | > -5 | > -5 | > -5 | FC(F)(F)c1ccc(/C=C/c2nc(COc3ccc(CCCCn4ccnn4)cc3)co2)cc1 [Mubritinib] | > -5 | -7.63 | > -5 | -6.42 |
| -8.8 | -9.61 | -9.02 | -9.28 | -9.64 | -8.91 | CCNC(=O)c1noc(-c2cc(C(C)C)c(O)cc2O)c1-c1ccc(CN2CCOCC2)cc1 [NVP-AUY-922] | -8.84 | -9.55 | -8.55 | -8.86 |
| > -5 | > -5 | > -5 | > -5 | > -5 | > -5 | Cc1c(C(=O)Nc2ccc(N3C[C@@H](C)O[C@@H](C)C3)nc2)cccc1-c1ccc(OC(F)(F)F)cc1 [NVP-LDE-225] | > -5 | -5.16 | > -5 | > -5 |
| -5.65 | -5.56 | > -5 | -5.56 | -5.83 | -5.47 | COc1cc(N2CCC(N3CCN(C)CC3)CC2)ccc1Nc1ncc(Cl)c(Nc2ccccc2S(=O)(=O)C(C)C)n1 [NVP-TAE-684] | -5.79 | -5.97 | -5.7 | -5.25 |
| > -5 | -5.38 | -5.57 | -5.44 | -5.28 | -5.19 | Cc1cn(-c2cc(NC(=O)c3ccc(C)c(Nc4nccc(-c5cccnc5)n4)c3)cc(C(F)(F)F)c2)cn1 [Nilotinib] | -5.26 | -7.48 | > -5 | > -5 |
| -5.4 | -6.66 | -6.28 | -5.73 | -6.48 | -5.68 | COc1cccc2cc(-c3nc([C@H]4CC[C@H](C(=O)O)CC4)n4ncnc(N)c34)[nH]c12 [OSI-027] | -6.24 | -8.18 | -5.26 | -5.52 |
| -6.31 | -5.44 | > -5 | -5.38 | > -5 | -5.56 | C[C@]1(O)C[C@@H](c2nc(-c3ccc4ccc(-c5ccccc5)nc4c3)c3c(N)nccn32)C1 [OSI-906] | -6.24 | -5.74 | > -5 | -5.56 |
| -7.59 | -7.04 | -7.45 | -7.77 | -7.27 | -6.64 | COC1=CC(c2cc3ccccc3[nH]2)=N/C1=C\c1[nH]c(C)cc1C [Obatoclax] | -7.66 | -7.65 | -7.72 | -7.77 |
| > -5 | -5.12 | > -5 | -5.5 | -5.65 | > -5 | O=C(c1cc(Cc2n[nH]c(=O)c3ccccc23)ccc1F)N1CCN(C(=O)C2CC2)CC1 [Olaparib] | > -5 | -5.64 | > -5 | -5.1 |
| > -5 | > -5 | > -5 | > -5 | > -5 | > -5 | C[C@@H]1C[C@H]2[C@@H]3CCC4=CC(=O)C=C[C@]4(C)[C@@]3(F)[C@@H](O)C[C@]2(C)[C@@]1(O)C(=O)CO [dexamethasone] | > -5 | > -5 | > -5 | > -5 |
